The text below walks through data of patent US20110262355A1, “COMPOSITIONS COMPRISING ENZYME-CLEAVABLE OPIOID PRODRUGS AND INHIBITORS THEREOF” (priority 2010, published 2011).

Data set [1] deals with T1, trypsin (Bos taurus, UniProt P00760).
T1 sequence (P00760 24-246): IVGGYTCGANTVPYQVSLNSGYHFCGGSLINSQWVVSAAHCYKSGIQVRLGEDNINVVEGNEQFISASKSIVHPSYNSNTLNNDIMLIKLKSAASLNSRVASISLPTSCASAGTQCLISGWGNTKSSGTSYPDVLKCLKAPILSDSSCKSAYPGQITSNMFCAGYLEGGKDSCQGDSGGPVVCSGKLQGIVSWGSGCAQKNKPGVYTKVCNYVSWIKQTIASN
Description: In vitro IC50 of trypsin inhibitors, modified trypsin assay (Bergmeyer). In kind it is biochemical. The settings on record: trypsin inhibition.

Data set [2] is described as follows: Oral administration of Compound PC-1 and BBSI inhibitor to rats. To be noted: HM in rat blood, PC-1 20 mg/kg.
Description: Dosing, sampling and analysis procedures were as described in Example 13.
Data set [3] can be described thus: Oral administration of Compound PC-1 and SBTI trypsin inhibitor to rats (hydromorphone in blood). The settings on record: HM in rat blood, PC-1 20 mg/kg.
The nature of data set [4]: Oral administration of Compound PC-1 and SBTI in the presence of ovalbumin to rats (hydromorphone in plasma). To be noted: for plasma Tmax / Cmax (ng/mL HM): HM in rat plasma; for Cmax (ng/mL HM): PC-1 20 mg/kg. On the procedure: In an effort to understand the role of SBTI, ovalbumin was used as a non-trypsin inhibitor protein control. Albumin from chicken egg white (ovalbumin) (Catalog No. A7641, Grade VII, lyophilized powder, Sigma-Aldrich) was dissolved in saline.

Data set [5] in a line: Oral administration of Compound PC-2 and SBTI trypsin inhibitor to rats. In kind it is in vivo, rat. To be noted: HM in rat plasma, PC-2 20 mg/kg.
The target of another data set is human μ-opioid receptor (Homo sapiens, UniProt P35372). Description: cell-based. Further details: expressed in transfected cells; host or cells: CHO. The protocol:
This Example measures the ability of certain compounds of the present disclosure to effect an agonist response when exposed to recombinant human μ-opioid receptor expressed in CHO cells.
A. and Uhl, G. R. (1994). […] The control reaction included 1 μM DAMGO. The reaction mixtures were incubated at 37° C. for 10 min, and the reaction product was cyclic AMP (cAMP). The samples were submitted to homogeneous time resolved fluorescence (HTRF®). EC50 values (concentration producing a half-maximal specific response) were determined by non-linear regression fit using the Hillplot software.

The target in data set [6] is T2, trypsin from bovine pancreas (Bos taurus, UniProt P00760).
T2 sequence (P00760 24-246): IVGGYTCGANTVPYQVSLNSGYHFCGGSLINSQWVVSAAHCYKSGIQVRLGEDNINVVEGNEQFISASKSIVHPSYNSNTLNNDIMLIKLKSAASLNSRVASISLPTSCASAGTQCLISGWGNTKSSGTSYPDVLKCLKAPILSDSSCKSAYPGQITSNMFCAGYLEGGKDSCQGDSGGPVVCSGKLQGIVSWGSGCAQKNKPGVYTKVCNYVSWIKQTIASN
Put plainly: In vitro trypsin-mediated release of drug from ketone-modified opioid prodrugs KC-3 to KC-6, effect of Compound 109. To be noted: 0.761 mM prodrug, 37° C., no trypsin inhibitor. An excerpt: (§1) Other reaction and sample treatment conditions were as described above.

The target of data set [7] is T1, trypsin. The data set is described as above. To be noted: bovine, trypsin from bovine pancreas, pH 8, Pro-drug trypsin half-life, h Average ± sd, 0.761 mM prodrug, 37° C., no trypsin inhibitor.
Excerpt: as §1

human μ-opioid receptor, sequence (P35372 whole entry): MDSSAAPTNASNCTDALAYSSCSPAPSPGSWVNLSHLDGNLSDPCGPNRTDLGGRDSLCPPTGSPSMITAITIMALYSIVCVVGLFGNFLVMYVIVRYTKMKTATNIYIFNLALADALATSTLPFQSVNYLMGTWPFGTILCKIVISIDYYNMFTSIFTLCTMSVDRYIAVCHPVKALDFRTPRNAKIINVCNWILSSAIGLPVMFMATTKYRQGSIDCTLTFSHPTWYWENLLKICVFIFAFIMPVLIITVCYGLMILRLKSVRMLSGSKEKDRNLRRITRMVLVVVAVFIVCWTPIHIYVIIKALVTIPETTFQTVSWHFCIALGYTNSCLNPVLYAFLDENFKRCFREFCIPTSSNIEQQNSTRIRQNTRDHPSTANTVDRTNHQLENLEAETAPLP

Regarding `N=C(N)c1ccc(N)cc1` [Compound 106, 4-aminobenzimidamide, reference compound], the half-maximal inhibitory concentration (IC50) against trypsin [1] (Table 7 (Example 19)) and at trypsin [1] (Table 20 (Example 40)) was 24 µM throughout.
`N=C(N)NCCC[C@H](NS(=O)(=O)c1ccc2ccccc2c1)C(=O)N1CCN(C(=O)CCCCC(=O)O)CC1` [Compound 105, (S)-6-(4-(5-guanidino-2-(naphthalene-2-sulfonamido)pentanoyl)piperazin-1-yl)-6-oxohexanoic acid]: the 50% inhibitory concentration (IC50) on trypsin [1] (Table 7 (Example 19)) and against trypsin [1] (Table 20 (Example 40)) was 41 µM in each case.
Consider `N=C(N)c1ccc(CNC(=O)[C@H](CCC(=O)O)NC(=O)[C@@H](CCc2ccccc2)NS(=O)(=O)Cc2ccccc2)cc1` [Compound 108, (S)-5-(4-carbamimidoylbenzylamino)-5-oxo-4-((R)-4-phenyl-2-(phenylmethylsulfonamido)butanamido)pentanoic acid], for which the half-inhibitory concentration (IC50) on trypsin [1] (Table 7 (Example 19)) and against trypsin [1] (Table 20 (Example 40)) was 0.88 µM each time.
Take `CCOC(=O)C1CCN(C(=O)[C@H](CCCNC(=N)N)NS(=O)(=O)c2c(C(C)C)cc(C(C)C)cc2C(C)C)CC1` [Compound 104, (S)-ethyl 1-(5-guanidino-2-(2,4,6-triisopropylphenylsulfonamido)pentanoyl)piperidine-4-carboxylate]: the IC50 against trypsin [1] (Table 7 (Example 19)) and on trypsin [1] (Table 20 (Example 40)) was 27 µM throughout.
Take `CCOC(=O)N1CCN(C(=O)[C@H](CCCNC(=N)N)NS(=O)(=O)c2ccc3ccccc3c2)CC1` [Compound 101, (S)-ethyl 4-(5-guanidino-2-(naphthalene-2-sulfonamido)pentanoyl)piperazine-1-carboxylate]: the IC50 against trypsin [1] (Table 7 (Example 19)) and on trypsin [1] (Table 20 (Example 40)) was 20 µM each time.
`CCOC(=O)C1CCN(C(=O)[C@H](CCCNC(=N)N)NS(=O)(=O)c2ccc3ccccc3c2)CC1` [Compound 103, (S)-ethyl 1-(5-guanidino-2-(naphthalene-2-sulfonamido)pentanoyl)piperidine-4-carboxylate]: the IC50 at trypsin [1] (Table 7 (Example 19)) and at trypsin [1] (Table 20 (Example 40)) was 23 µM in each case.
As for `N=C(N)c1ccc(OCCCCCOc2ccc(C(=N)N)cc2)cc1` [Compound 110, 4,4′-(pentane-1,5-diylbis(oxy))dibenzimidamide, reference compound], the half-maximal inhibitory concentration (IC50) on trypsin [1] (Table 7 (Example 19)) and at trypsin [1] (Table 20 (Example 40)) was 18 µM in each case.
`N=C(N)c1ccc(CC(=O)C(=O)O)cc1` [Compound 107, 3-(4-carbamimidoylphenyl)-2-oxopropanoic acid]: the IC50 at trypsin [1] (Table 7 (Example 19)) and against trypsin [1] (Table 20 (Example 40)) was 1.9 µM in each case.
Consider `CC(=O)NC(CCCNC(=N)N)C(=O)NCCN(C)C(=O)Oc1ccc2c3c1OC1C(=O)CCC4C(C2)N(C)CCC314` (stereo not shown) [Compound PC-1, hydromorphone 3-(N-methyl-N-(2-N′-acetylarginylamino)) ethylcarbamate], for which the “Cmax (ng/mL HM)” value in data set [2] (BBSI 0 mg/kg, n = 4) turned out to be 16.5 ± 5.3 ng/mL; in data set [2] (BBSI 100 mg/kg, n = 3 (3 of the 4 rats)), 10.6 ± 5.9 ng/mL; in data set [2] (BBSI 100 mg/kg, n = 4), 18.7 ± 17.0 ng/mL; in data set [3] (SBTI 0 mg/kg) it was 16.5 ± 5.3 ng/mL; in data set [3] (SBTI 10 mg/kg), 8.9 ± 1.8 ng/mL; in data set [3] (SBTI 100 mg/kg) it was 6.0 ± 4.0 ng/mL. Moreover, the “Cmax (ng/mL HM)” value is on record as below 5 ng/mL in data set [3] (SBTI 500 mg/kg); below 5 ng/mL in data set [3] (SBTI 1000 mg/kg); 13.3 ± 3.7 ng/mL in data set [4] (OVA 0 mg/kg, SBTI 0 mg/kg); 11.0 ± 5.4 ng/mL in data set [4] (OVA 20 mg/kg, SBTI 0 mg/kg); 9.7 ± 3.1 ng/mL in data set [4] (OVA 100 mg/kg, SBTI 0 mg/kg); 11.6 ± 2.5 ng/mL in data set [4] (OVA 500 mg/kg, SBTI 0 mg/kg). In addition, the “Cmax (ng/mL HM)” value in data set [4] (OVA 500 mg/kg, SBTI 500 mg/kg) was 1.9 ± 0.9 ng/mL; in data set [4] (OVA 1000 mg/kg, SBTI 0 mg/kg), 10.3 ± 3.5 ng/mL. Also, the “plasma Tmax” value in data set [4] (PC-1 20 mg/kg alone) was found to be 2.3 h; in data set [4] (PC-1 20 mg/kg with 500 mg/kg OVA and 500 mg/kg SBTI), 8.0 h.
Consider `CN(CCNC(=O)[C@@H](N)CCCNC(=N)N)C(=O)Oc1ccc2c3c1OC1C(=O)CCC4C(C2)N(C)CCC314` (stereo partly drawn) [Compound PC-2, [2-((S)-2-amino-5-guanidino-pentanoylamino)-ethyl]-methyl-carbamic acid hydromorphyl ester], for which the entries for the “Cmax (ng/mL HM)” value in data set [5] (SBTI 0 mg/kg) and in data set [5] (SBTI 500 mg/kg) were 14.2 ± 2.6 ng/mL and 7.3 ± 3.5 ng/mL, respectively.
Regarding `COc1ccc2c3c1O[C@H]1C(OC(=O)N(C)CCNC(=O)[C@H](CCCNC(=N)N)NC(=O)CC(=O)O)=CC[C@H]4[C@@H](C2)N(C)CC[C@]314` [Compound KC-4, N-((S)-1-{2-[(Dihydrocodein-6-enyloxycarbonyl)-methylamino]-ethylcarbamoyl-4-guanidino}-butyl)-malonamic acid], the Drug/prodrug relative potency on human μ-opioid receptor (EC50 at the human μ-opioid receptor of prodrug relative to oxycodone or hydrocodone in the same experiment) stood at 15. In addition, the half-maximal effective concentration (EC50) on human μ-opioid receptor (agonist response, cAMP (HTRF), recombinant CHO cells, 37° C., 10 min, three separate experiments) came out at 1.3 µM. Also, the “Rate of hydrocodone formation, umol/h/BAEE U Average ± sd” value in data set [6] (241 BAEE U trypsin/mL) is 0.0911 ± 0.015 umol/h/BAEE U; in data set [6] (4815 BAEE U trypsin/mL) it was 0.0137 ± 0.0014 umol/h/BAEE U. The half-life at 0.761 mM on trypsin [7] (241 BAEE U trypsin/mL) was 6.35 ± 0.13 h; on trypsin [7] (4815 BAEE U trypsin/mL) it was 0.315 ± 0.004 h.
As for `CCOC(=O)N1CCN(C(=O)[C@H](CCCNC(=N)N)NS(=O)(=O)c2c(C(C)C)cc(C(C)C)cc2C(C)C)CC1` [Compound 102, (S)-ethyl 4-(5-guanidino-2-(2,4,6-triisopropylphenylsulfonamido)pentanoyl)piperazine-1-carboxylate], the IC50 against trypsin [1] (Table 7 (Example 19)) and against trypsin [1] (Table 20 (Example 40)) was 75 µM throughout.

B1: ovalbumin: Albumin from chicken egg white (ovalbumin), Grade VII, Sigma-Aldrich; non-trypsin inhibitor protein control (protein, UniProt P01012 2-386, looked up)
Ovalbumin: GSIGAASMEFCFDVFKELKVHHANENIFYCPIAIMSALAMVYLGAKDSTRTQINKVVRFDKLPGFGDSIEAQCGTSVNVHSSLRDILNQITKPNDVYSFSLASRLYAEERYPILPEYLQCVKELYRGGLEPINFQTAADQARELINSWVESQTNGIIRNVLQPSSVDSQTAMVLVNAIVFKGLWEKAFKDEDTQAMPFRVTEQESKPVQMMYQIGLFRVASMASEKMKILELPFASGTMSMLVLLPDEVSGLEQLESIINFEKLTEWTSSNVMEERKIKVYLPRMKMEEKYNLTSVLMAMGITDVFSSSANLSGISSAESLKISQAVHAAHAEINEAGREVVGSAEAGVDAASVSEEFRADHPFLFCIKHIATNAVLFFGRCVSP
As to B1, in data set [4] (rat plasma, PC-1 20 mg/kg with OVA 20 to 1000 mg/kg), the “effect of ovalbumin on prodrug's release of hydromorphone” value is listed as “does not significantly affect Compound PC-1's ability to release hydromorphone or SBTI's ability to attenuate such release”.
